Laboratory results reported in the NIST ThermoML archive (doi:10.1021/acs.jced.5b00537).

How the values were obtained:
[1] = Liquid; for viscosity: Cone and plate viscometry; for mass density: Vibrating tube method; for vapor or sublimation pressure: Ebulliometric method (Recirculating still)
[2] = xn = mol fraction of the nth substance listed; settings: 100 kPa, Liquid, x2 = 0; for viscosity: Cone and plate viscometry; for mass density: Vibrating tube method

CC(C)CO [2-methyl-1-propanol]
[1]
Settings | mass density, 101 kPa [kg/m3] | mass density, 101.33 kPa [kg/m3] | viscosity, 101 kPa [mPa·s]
293.15 K | 801.75 | – | 4.315
298.15 K | – | 797.83 | –
303.15 K | 794.16 | – | 3.089
313.15 K | 786.27 | – | 2.261
323.15 K | 778.28 | – | 1.701
333.15 K | 769.74 | – | 1.29
343.15 K | 760.83 | – | –
353.15 K | 751.67 | – | –
363.15 K | 741.9 | – | –

[1]
Settings | vapor or sublimation pressure [kPa]
296.87 K | 1.391
298.77 K | 1.593
300.53 K | 1.796
302.12 K | 1.995
302.29 K | 2
302.3 K | 2
309.88 K | 3.289
311.74 K | 3.692
313.42 K | 4.095
314.93 K | 4.489
316.71 K | 4.991
316.78 K | 4.995
322.51 K | 6.986
323.97 K | 7.587
325.33 K | 8.182
326.61 K | 8.784
327.82 K | 9.384
329.01 K | 9.99
329.02 K | 9.989
336.03 K | 14.47
337.45 K | 15.56
338.83 K | 16.66
340.11 K | 17.76
342.37 K | 19.95
342.51 K | 19.99
342.52 K | 19.99
357.51 K | 39.95
357.52 K | 39.94
362.71 K | 49.87
367.13 K | 59.85
370.94 K | 69.83
374.36 K | 79.82
377.44 K | 89.76
378.97 K | 94.99

CC(C)CO [2-methyl-1-propanol] + CCC(C)(C)O
[2]
Settings | mass density [kg/m3] | viscosity [mPa·s]
293.15 K | 801.75 | 4.315
303.15 K | 794.16 | 3.089
313.15 K | 786.27 | 2.261
323.15 K | 778.28 | 1.701
333.15 K | 769.74 | 1.29
343.15 K | 760.83 | –
353.15 K | 751.67 | –
363.15 K | 741.9 | –

CCC(C)(C)O [2-methylbutan-2-ol]
[1]
Settings | mass density, 101 kPa [kg/m3] | mass density, 101.33 kPa [kg/m3] | viscosity, 101 kPa [mPa·s]
293.15 K | 808.77 | – | 4.596
298.15 K | – | 804.28 | –
303.15 K | 799.74 | – | 2.983
313.15 K | 790.35 | – | 2.078
323.15 K | 780.66 | – | 1.494
333.15 K | 770.4 | – | 1.093
343.15 K | 759.8 | – | –
353.15 K | 749.13 | – | –
363.15 K | 738.77 | – | –

[1]
Settings | vapor or sublimation pressure [kPa]
296.61 K | 1.992
296.7 K | 1.99
297.94 K | 2.19
299.29 K | 2.388
300.33 K | 2.589
301.46 K | 2.791
302.54 K | 2.999
310.7 K | 4.984
311.35 K | 5.181
311.98 K | 5.383
312.29 K | 5.49
313.76 K | 5.991
315.13 K | 6.487
316.4 K | 6.987
317.37 K | 7.387
322.63 K | 9.978
322.92 K | 10
323.15 K | 10.18
323.49 K | 10.38
323.84 K | 10.58
324.14 K | 10.78
324.51 K | 10.97
325.37 K | 11.57
326.73 K | 12.38
327.62 K | 12.97
327.81 K | 13.17
329.05 K | 13.97
330.38 K | 14.96
336.11 K | 19.94
336.26 K | 19.99
337.58 K | 21.45
338.97 K | 22.94
340.32 K | 24.44
341.57 K | 25.93
341.59 K | 25.92
342.39 K | 26.94
348.11 K | 34.91
351.17 K | 39.89
351.33 K | 39.95
353.93 K | 44.88
356.46 K | 49.88
361.02 K | 59.92
372.63 K | 93.14
373.16 K | 94.89
373.29 K | 95.01
373.6 K | 96.54
374.05 K | 98.01
374.53 K | 99.81
374.93 K | 101.04
376.03 K | 104.99
377.33 K | 109.95
378.63 K | 115.02
379.87 K | 120.01
381.05 K | 124.96
